20 molecules from patent US4405743A, “Pyrazolylpyrimidine derivatives” (Hokko Chemical Industry Co., Ltd., priority 1981, dated 1983) can be followed below.

Molecules are shown by their SMILES. Like-named read-outs stand apart in the source and are kept apart here.

In one series the test system is Cochliobolus miyabeanus. Briefly: Effect of controlling rice brown spot, Experimental Example 3. In kind it is in vivo, Cochliobolus miyabeanus on rice plant (variety: Asahi). The settings on record: sprayed liquid 500 ppm, 5 days after inoculation.
Series [1] deals with Pyricularia oryzae. In kind it is in vivo, Pyricularia oryzae on rice plant (variety: Asahi). The settings on record: rice blast, prevention; 200 ppm; 5 days after inoculation.
Series [2] relates to rice plant. The settings on record: blast prevention test, 200 ppm.
Series [3] concerns rice plant. The settings on record: in vivo.
Another series has as its system Sphaerotheca friliginea. Kind of series: Effect of controlling cucumber powdery mildew, Experimental Example 4. The settings on record: sprayed liquid 200 ppm, 10 days after inoculation. In kind it is in vivo. As to the method: 10 ml of each of test liquids diluted to a predetermined concentration was sprayed over seedlings of a cucumber plant (variety: Sagami Hanpaku) grown up to the first leaf stage which has been soil cultured in an unglazed pot with a diameter of 9 cm in a green house. After allowing to stand overnight, the seedlings were sprayed for inoculation with a spore suspension of Sphaerotheca friliginea. Ten days after the inoculation, the rate of a lesion area (%) was checked and a control value was evaluated from the following equation. The degree of chemical injury against a cucumber plant was determined in the same manner as in Experimental Example.

Series [4] has as its system rice plant. The settings on record: blast curative test, 200 ppm.
The subject of series [5] is Pyricularia oryzae. In kind it is in vivo, Pyricularia oryzae on rice plant (variety: Asahi). The settings on record: rice blast, curative treatment; sprayed liquid 200 ppm; 5 days after spraying.

Consider `CSc1ccc(Oc2cc(C)nc(-n3nc(C)cc3C)n2)cc1` [Compound 18], for which the “Control Value” worked out at 90% in the series with Cochliobolus miyabeanus and 100% in the series on Pyricularia oryzae [1]. The “Degree of chemical injury” value with rice plant [2] and with rice plant [3] was 0 throughout.

Regarding `Cc1cc(Oc2cccc(C(F)(F)F)c2)nc(-n2nc(C)cc2C)n1` [Compound 21], the “Control Value” turned out to be 77% in the series on Cochliobolus miyabeanus, 86% with Sphaerotheca friliginea and 100% with Pyricularia oryzae [1]. Moreover, the “Degree of chemical injury” value in the series on cucumber plant (in vivo), with rice plant [2] and in the series on rice plant [3] was 0 throughout.

On to `COc1ccc(Oc2cc(C)nc(-n3nc(C)cc3C)n2)cc1` [Compound 17], for which the “Control Value” with Cochliobolus miyabeanus, with Sphaerotheca friliginea, in the series with Pyricularia oryzae [1] and in the series with Pyricularia oryzae [5] was 100% throughout. In addition, the “Degree of chemical injury” value with rice plant [4], with cucumber plant (in vivo), in the series on rice plant [2] and in the series on rice plant [3] was 0 each time.

For the molecule `Cc1ccc(C)c(Oc2cc(C)nc(-n3nc(C)cc3C)n2)c1` [Compound 28], the “Control Value” with Cochliobolus miyabeanus is 100%; in the series on Sphaerotheca friliginea, 100%; in the series on Pyricularia oryzae [1] it was 100%; in the series on Pyricularia oryzae [5] it was 98%. For the same molecule, the “Degree of chemical injury” value in the series on rice plant [4], with cucumber plant (in vivo), in the series on rice plant [2] and in the series with rice plant [3] was 0 in each case.

As for `CCOc1nc(-n2nc(C)cc2C)nc(C)c1C` [Compound 36], the “Control Value” in the series on Cochliobolus miyabeanus came out at 100%; with Sphaerotheca friliginea, 93%; in the series on Pyricularia oryzae [1] it was 100%; with Pyricularia oryzae [5], 99%. In addition, the “Degree of chemical injury” value in the series on rice plant [4] turned out to be 9; with cucumber plant (in vivo), 0; in the series on rice plant [2], 0; in the series on rice plant [3] it was 0.

For the molecule `Cc1cc(Oc2ccc(C(C)C)cc2)nc(-n2nc(C)cc2C)n1` [Compound 14], the “Control Value” in the series with Cochliobolus miyabeanus is on record as 94%; in the series on Sphaerotheca friliginea, 100%; in the series with Pyricularia oryzae [1], 100%; in the series with Pyricularia oryzae [5] it was 92%. Besides, the “Degree of chemical injury” value in the series with rice plant [4], in the series with cucumber plant (in vivo), with rice plant [2] and in the series on rice plant [3] was 0 throughout.

As to `CCSc1nc(-n2nc(C)cc2C)ncc1C` [Compound 33], the “Control Value” in the series on Cochliobolus miyabeanus is 82%; in the series with Sphaerotheca friliginea, 94%; with Pyricularia oryzae [1], 100%; in the series with Pyricularia oryzae [5], 82%. In addition, the “Degree of chemical injury” value with rice plant [4], in the series on cucumber plant (in vivo), in the series on rice plant [2] and in the series with rice plant [3] was 0 throughout.

Turning to `Cc1cc(Oc2ccccc2C)nc(-n2nc(C)cc2C)n1` [Compound 11], the “Control Value” in the series with Cochliobolus miyabeanus turned out to be 100%; with Sphaerotheca friliginea, 90%; in the series with Pyricularia oryzae [1] it was 100%; in the series on Pyricularia oryzae [5], 100%. Also, the “Degree of chemical injury” value in the series with rice plant [4], in the series with cucumber plant (in vivo), in the series on rice plant [2] and in the series on rice plant [3] was 0 in each case.

For the molecule `Cc1cc(Oc2ccc([N+](=O)[O-])c(C)c2)nc(-n2nc(C)cc2C)n1` [Compound 31], the “Degree of chemical injury” value with rice plant [4], with cucumber plant (200 ppm) and in the series on rice plant [2] was 0 throughout. Moreover, the Control Value with Sphaerotheca friliginea turned out to be 77%; in the series on Pyricularia oryzae [1], 100%; with Pyricularia oryzae [5], 84%.

Regarding `Cc1cc(Sc2ccc(Cl)cc2)nc(-n2nc(C)cc2C)n1` [Compound 5], the “Control Value” in the series on Cochliobolus miyabeanus turned out to be 100%; in the series with Sphaerotheca friliginea, 85%; in the series with Pyricularia oryzae [1], 100%; in the series on Pyricularia oryzae [5], 100%. The “Degree of chemical injury” value in the series on rice plant [4], in the series on cucumber plant (in vivo), in the series on rice plant [2] and in the series on rice plant [3] was 0 in each case.

Regarding `Cc1cc(C)c(C)c(Oc2cc(C)nc(-n3nc(C)cc3C)n2)c1` [Compound 30], the “Control Value” in the series with Cochliobolus miyabeanus came to 87%; in the series with Sphaerotheca friliginea it was 92%; in the series on Pyricularia oryzae [1], 100%; in the series on Pyricularia oryzae [5], 100%. Further, the “Degree of chemical injury” value in the series on rice plant [4], with cucumber plant (in vivo), in the series with rice plant [2] and in the series on rice plant [3] was 0 in each case.

With `Cc1cc(SC#N)nc(-n2nc(C)cc2C)n1` [Comparative Chemical 3], the “Degree of chemical injury” value in the series with rice plant [3] turned out to be 5.

For `Cc1cc(Oc2ccc(I)cc2)nc(-n2nc(C)cc2C)n1` [Compound 10], the “Control Value” stood at 60% in the series on Cochliobolus miyabeanus and 100% in the series on Pyricularia oryzae [1]. The “Degree of chemical injury” value in the series with rice plant [2] and with rice plant [3] was 0 throughout.

In the case of `CCOC(=O)c1ccc(Oc2cc(C)nc(-n3nc(C)cc3C)n2)cc1` [Compound 22], the “Control Value” with Cochliobolus miyabeanus and in the series with Pyricularia oryzae [1] was 100% in each case. Further, the “Degree of chemical injury” value in the series on rice plant [2] and in the series on rice plant [3] was 0 in each case.

For `Cc1cc(Oc2ccc(Br)cc2)nc(-n2nc(C)cc2C)n1` [Compound 8], the “Control Value” is listed as 61% in the series on Cochliobolus miyabeanus, 78% in the series on Sphaerotheca friliginea and 100% in the series on Pyricularia oryzae [1]. The “Degree of chemical injury” value with cucumber plant (in vivo), in the series with rice plant [2] and in the series with rice plant [3] was 0 each time.

`Cc1cc(Oc2ccc(Cl)c(C)c2)nc(-n2nc(C)cc2C)n1` [Compound 26]: the “Control Value” with Cochliobolus miyabeanus and in the series on Pyricularia oryzae [1] was 100% each time. Besides, the “Degree of chemical injury” value with rice plant [2] and in the series with rice plant [3] was 0 each time.

Consider `Cc1cc(Oc2ccc([N+](=O)[O-])cc2)nc(-n2nc(C)cc2C)n1` [Compound 20], for which the “Control Value” was 91% with Cochliobolus miyabeanus, 78% in the series on Sphaerotheca friliginea and 82% in the series with Pyricularia oryzae [1]. Also, the “Degree of chemical injury” value in the series with cucumber plant (in vivo), in the series on rice plant [2] and in the series with rice plant [3] was 0 each time.

Consider `Cc1ccc(Sc2cc(C)nc(-n3nc(C)cc3C)n2)cc1` [Compound 16], for which the “Control Value” in the series with Cochliobolus miyabeanus, in the series on Pyricularia oryzae [1] and in the series with Pyricularia oryzae [5] was 100% in each case. Also, the “Degree of chemical injury” value in the series with rice plant [4], with rice plant [2] and in the series with rice plant [3] was 0 in each case.

Take `Cc1cc(Oc2ccc(C#N)cc2)nc(-n2nc(C)cc2C)n1` [Compound 19]: the “Control Value” in the series with Pyricularia oryzae [1] is 100%. Moreover, the “Degree of chemical injury” value in the series on rice plant [2] came to 0.

On to `Cc1cc(Oc2ccc(Cl)c(Cl)c2)nc(-n2nc(C)cc2C)n1` [Compound 24], for which the “Control Value” with Cochliobolus miyabeanus worked out at 89%; with Pyricularia oryzae [1], 92%; in the series with Pyricularia oryzae [5], 84%. The “Degree of chemical injury” value in the series on rice plant [4], in the series with cucumber plant (in vivo), in the series with rice plant [2] and with rice plant [3] was 0 each time.
